For the assay, the target named is Recombinant human Mat2a (Homo sapiens (Human), UniProt P31153). In words: Determination of Mat2A activity (384 well absorbance-based assay, Biomol Green). The assay is classed as biochemical. The settings on record: 12.5 nM Mat2A, 100 μM ATP and Methionine, 2% DMSO, 120 minutes at RT, absorbance at 635 nm; read-out: MAT2A_LEC IC50 (uM) (Num). The method, then:
Determination of Mat2A Activity
Measurement of Mat2A inhibition is performed in 384 well format absorbance-based assay. Recombinant human Mat2a (12.5 nM) and serial diluted compounds in DMSO (range of concentrations from 10 μM to 508 pM) or controls (DMSO) are incubated for 15 minutes at room temperature (RT) in assay buffer containing 50 mM HEPES pH 7.5, 50 mM KCl, 50 mM MgCl2, 0.01%Tween 20 and 10 mM DTT. The reaction is initiated by the addition of the combined substrates ATP and Methionine, each at a final concentration of 100 μM. Final assay condition are 12.5 nM Mat2A, 100 μM ATP and Methionine Substrates and 2% DMSO. After 120 minutes of incubation at RT, the reaction is stopped by the addition of Biomol Green. The absorbance signal is measured at λ=635 nm with a multiplate reader (BMG Pherastar reader or equivalent) after 30 min of equilibration at RT.

Structures can show the parent of a compound that is named as a salt. Some results are limits rather than exact numbers.

Recombinant human Mat2a, sequence (P31153 whole entry): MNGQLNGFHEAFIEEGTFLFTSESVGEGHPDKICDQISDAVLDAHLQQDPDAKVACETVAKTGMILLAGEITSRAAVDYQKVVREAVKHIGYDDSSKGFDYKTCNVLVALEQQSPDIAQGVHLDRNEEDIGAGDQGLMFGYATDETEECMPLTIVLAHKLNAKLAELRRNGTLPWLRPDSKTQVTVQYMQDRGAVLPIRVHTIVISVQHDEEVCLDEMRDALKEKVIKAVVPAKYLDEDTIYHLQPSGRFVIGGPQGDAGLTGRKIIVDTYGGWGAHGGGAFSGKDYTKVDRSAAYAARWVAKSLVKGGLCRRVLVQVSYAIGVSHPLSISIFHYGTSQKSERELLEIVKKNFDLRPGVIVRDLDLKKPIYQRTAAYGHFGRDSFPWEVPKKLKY

The IC50 is the point on the concentration scale where inhibition reaches its midpoint. As to `CC(=O)NCCCNc1cnc(-c2ccc(S(C)(=O)=O)c(C)c2)c2c(C3CC3)n[nH]c12` [Example 100, N-[3-[[3-cyclopropyl-4-(3-methyl-4-methylsulfonyl-phenyl)-1H-pyrazolo[4,3-c]pyridin-7-yl]amino]propyl]acetamide], the IC50 turned out to be 0.03 µM.
The value for `Cc1cc(-c2c([S+](C)[O-])ccc3[nH]nc(C4CC4)c23)ccc1S(C)(=O)=O` (stereo not shown) [Example 76, 3-cyclopropyl-4-(3-methyl-4-(methylsulfonyl)phenyl)-5-(methylsulfinyl)-1H-indazole] was 0.26 µM; that for `Cc1cc(-c2nccc3[nH]nc(C(C)(F)F)c23)ccc1S(C)(=O)=O` [Example 17, 3-(1,1-difluoroethyl)-4-(3-methyl-4-(methylsulfonyl)phenyl)-1H-pyrazolo[4,3-c]pyridine] was under 0.013 µM.
Under `Cc1cc(-c2nccc3[nH]nc(C(F)F)c23)ccc1S(C)(=O)=O` [Example 18, 3-(difluoromethyl)-4-(3-methyl-4-methylsulfonylphenyl)-1H-pyraxolo[4,3-c]pyridine] stands 0.095 µM; under `CC(=O)NCCOCCNc1cnc(-c2ccc(S(C)(=O)=O)c(C)c2)c2c(C3CC3)n[nH]c12` [Example 99, N-[2-[2-[[3-cyclopropyl-4-(3-methyl-4-methylsulfonyl-phenyl)-1H-pyrazolo[4,3-c]pyridin-7-yl]amino]ethoxy]ethyl]acetamide], 0.07 µM.
The value for `CS(=O)(=O)c1ccc(-c2nccc3[nH]nc(C4CC4)c23)cc1CF` [Example 13, 3-cyclopropyl-4-(3-(fluoromethyl)-4-(methylsulfonyl)phenyl)-1H-pyrazolo[4,3-c]pyridine] was 0.11 µM.
`COc1ncc2[nH]nc(C3CC3)c2c1-c1ccc(S(C)(=O)=O)cc1` [Example 6, 3-cyclopropyl-5-methoxy-4-(4-methylsulfonylphenyl)-1H-pyrazolo[3,4-c]pyridine]: the IC50 stood at 0.17 µM.
The value for `CN(C)S(=O)(=O)c1ccc(-c2nccc3[nH]nc(C4CC4)c23)cc1Cl` [Example 9, 2-chloro-4-(3-cyclopropyl-1H-pyrazolo[4,3-c]pyridin-4-yl)-N,N-dimethylbenzenesulfonamide] was 0.24 µM.
Take `CNC(=O)c1ncc2[nH]nc(C3CC3)c2c1-c1cc(C)c(S(=O)(=O)C2CC2)cc1F` [Example 96, 3-cyclopropyl-4-(4-cyclopropylsulfonyl-2-fluoro-5-methyl-phenyl)-N-methyl-1H-pyrazolo[3,4-c]pyridine-5-carboxamide]: the IC50 is under 0.013 µM.
Under `Cc1cc(-c2nccc3[nH]nc(OC(F)F)c23)ccc1S(C)(=O)=O` [Example 57, 3-(difluoromethoxy)-4-(3-methyl-4-(methylsulfonyl)phenyl)-1H-pyrazolo[4,3-c]pyridinepyridine] stands under 0.013 µM; under `CS(=O)(=O)c1ccc(-c2nccc3[nH]nc(C4CC4)c23)cc1Cl` [Example 3, 4-(3-chloro-4-(methylsulfonyl)phenyl)-3-cyclopropyl-1H-pyrazolo[4,3-c]pyridine], 0.15 µM; under `CCS(=O)(=O)c1ccc(-c2c(C#N)ncc3[nH]nc(C4CC4)c23)cc1C` [Example 42, 3-cyclopropyl-4-(4-ethylsulfonyl-3-methyl-phenyl)-1H-pyrazolo[3,4-c]pyridine-5-carbonitrile], under 0.013 µM.
Under `Cc1cc(-c2ncc(NCCCN)c3[nH]nc(C4CC4)c23)ccc1S(C)(=O)=O` [Example 104, N′-[3-cyclopropyl-4-(3-methyl-4-methylsulfonyl-phenyl)-1H-pyrazolo[4,3-c]pyridin-7-yl]propane-1,3-diamine] stands 0.04 µM.
The value for `Cc1cc(-c2ncc(F)c3[nH]nc(C4CC4)c23)ccc1S(C)(=O)=O` [Example 67, 3-cyclopropyl-7-fluoro-4-(3-methyl-4-methylsulfonyl-phenyl)-1H-pyrazolo[4,3-c]pyridine] was 0.025 µM.
As for `CS(=O)(=O)c1ccc(-c2nccc3[nH]nc(C4CC4)c23)cc1N` [Example 59, 5-(3-cyclopropyl-1H-pyrazolo[4,3-c]pyridin-4-yl)-2-(methylsulfonyl)aniline], the IC50 was determined as 0.26 µM.
Under `Cc1cc(-c2c(C(N)=O)ncc3[nH]nc(OC(F)F)c23)ccc1S(=O)(=O)C(F)F` [Example 106, 3-(difluoromethoxy)-4-[4-(difluoromethylsulfonyl)-3-methyl-phenyl]-1H-pyrazolo[3,4-c]pyridine-5-carboxamide] stands under 0.013 µM; under `CS(=O)(=O)c1ccc(-c2c(S(C)(=O)=O)ccc3[nH]nc(C4CC4)c23)cc1C(F)F` [Example 94, 3-cyclopropyl-4-(3-(difluoromethyl)-4-(methylsulfonyl)phenyl)-5-(methylsulfonyl)-1H-indazole], 0.05 µM; under `CCS(=O)(=O)c1ccc(-c2nccc3[nH]nc(OC(F)F)c23)cc1C` [Example 27, 3-(difluoromethoxy)-4-(4-ethylsulfonyl-3-methyl-phenyl)-1H-pyrazolo[4,3-c]pyridine], under 0.013 µM.
Under `Cc1cc(-c2c(C#N)ccc3[nH]nc(OC(F)F)c23)ccc1S(C)(=O)=O` [Example 69, 3-(difluoromethoxy)-4-(3-methyl-4-(methylsulfonyl)phenyl)-1H-indazole-5-carbonitrile] stands under 0.013 µM; under `Cc1cc(S(C)(=O)=O)c(C)cc1-c1nccc2[nH]nc(C3CC3)c12` [Example 22, 3-cyclopropyl-4-(2,5-dimethyl-4-methylsulfonyl-phenyl)-1H-pyrazolo[4,3-c]pyridine hydrochloride], 0.15 µM.
The value for `Cc1cc(-c2c(S(=O)(=O)C3COC3)ccc3[nH]nc(OC(F)F)c23)ccc1S(C)(=O)=O` [Example 111, 3-(difluoromethoxy)-4-(3-methyl-4-methylsulfonyl-phenyl)-5-(oxetan-3-ylsulfonyl)-1H-indazole] was under 0.013 µM; that for `Cc1cc(-c2nccc3[nH]nc(S(C)(=O)=O)c23)ccc1S(C)(=O)=O` [Example 60, 4-(3-methyl-4-(methylsulfonyl)phenyl)-3-(methylsulfonyl)-1H-pyrazolo[4,3-c]pyridine] was 0.29 µM; that for `CN(C)S(=O)(=O)c1ccc(-c2nccc3[nH]nc(OC(F)F)c23)cc1C(F)F` [Example 48, 4-[3-(difluoromethoxy)-1H-pyrazolo[4,3-c]pyridin-4-yl]-2-(difluoromethvl)-N,N-dimethyl-benzenesulfonamide] was 0.13 µM.
Turning to `Cc1cc(-c2ncc(O)c3[nH]nc(C4CC4)c23)ccc1S(C)(=O)=O` [Example 64, 3-cyclopropyl-4-(3-methyl-4-methylsulfonyl-phenyl)-1H-pyrazolo[4,3-c]pyridin-7-ol], the IC50 worked out at 0.2 µM.
As to `Cc1cc(-c2c(C(=O)O)ncc3[nH]nc(C4CC4)c23)ccc1S(C)(=O)=O` [Example 62, 3-cyclopropyl-4-(3-methyl-4-(methylsulfonyl)phenyl)-1H-pyrazolo[3,4-c]pyridine-5-carboxylic acid], the IC50 is under 0.013 µM.
The value for `CNC(=O)c1ncc2[nH]nc(C3CC3)c2c1-c1cc(C)c(S(C)(=O)=O)cc1F` [Example 97, 3-cyclopropyl-4-(2-fluoro-5-methyl-4-methylsulfonyl-phenyl)-N-methyl-1H-pyrazolo[3,4-c]pyridine-5-carboxamide] was under 0.013 µM; that for `Cc1cc(-c2c(C(=O)NC3COC3)ncc3[nH]nc(OC(F)F)c23)ccc1S(=O)(=O)C(F)F` [Example 107, 3-(difluoromethoxy)-4-[4-(difluoromethylsulfonyl)-3-methyl-phenyl]-N-(oxetan-3-yl)-1H-pyrazolo[3,4-c]pyridine-5-carboxamide] was 0.013 µM.
Under `Cc1cc(-c2nccc3[nH]nc(C4CC4)c23)ccc1S(=O)(=O)N(C)C` [Example 5, 4-(3-cyclopropyl-1H-pyrazolo[4,3-c]pyridin-4-yl)-N,N,2-trimethylbenzenesulfonamide] stands 0.17 µM; under `Cc1cc(-c2c(C(N)=O)ncc3[nH]nc(C4CC4)c23)ccc1S(C)(=O)=O` [Example 72, 3-cyclopropyl-4-(3-methyl-4-(methylsulfonyl)phenyl)-1H-pyrazolo[3,4-c]pyridine-5-carboxamide], under 0.013 µM; under `Cc1cc(-n2c(=O)ccc3[nH]nc(OC(F)F)c32)ccc1S(C)(=O)=O` [Example 78, 3-(difluoromethoxy)-4-(3-methyl-4-methylsulfonyl-phenyl)-1H-pyrazolo[4,3-b]pyridin-5-one], under 0.013 µM.
The value for `Cc1cc(-c2nccc3[nH]cc(C(F)(F)F)c23)ccc1S(C)(=O)=O` [Example 40, 4-(3-methyl-4-(methylsulfonyl)phenyl)-3-(trifluoromethyl)-1H-pyrrolo[3,2-c]pyridine] was 0.029 µM.
Consider `CNC(=O)c1ncc2[nH]nc(C3CC3)c2c1-c1ccc(S(C)(=O)=O)c(C)c1` [Example 73], for which the IC50 is under 0.013 µM.
Under `Cc1cc(-c2nccc3[nH]nc(C(C)C)c23)ccc1S(C)(=O)=O` [Example 19, 3-isopropyl-4-(3-methyl-4-(methylsulfonyl)phenyl)-1H-pyrazolo[4,3-c]pyridine] stands 0.042 µM; under `Cc1cc(-c2ncc(NCCOCCN)c3[nH]nc(C4CC4)c23)ccc1S(C)(=O)=O` [Example 101, N-[2-(2-aminoethoxy)ethyl]-3-cyclopropyl-4-(3-methyl-4-methylsulfonyl-phenyl)-1H-pyrazolo[4,3-c]pyridin-7-amine], 0.14 µM.

The values are drawn from US12565497B2 (Hoffmann-La Roche Inc., priority 2020, dated 2026).
